Values joined by “and” are separate entries in the source; they are usually repeats but may differ in a detail not shown here. Equal values may be shown once.
Conditions: Frequency=8 MHz, Dual path-length method

CC(C)C [2-methylpropane]
Conditions	speed of sound
300 K, 50138 kPa, Liquid	1240.1 m/s
300 K, 60144 kPa, Liquid	1297.7 m/s
300 K, 70151 kPa, Liquid	1350.8 m/s
300 K, 80158 kPa, Liquid	1400.3 m/s
300 K, 90165 kPa, Liquid	1446.7 m/s
300 K, 100172 kPa, Liquid	1490.4 m/s
300.01 K, 2103.9 kPa, Liquid	831.02 m/s
319.99 K, 40132 kPa, Liquid	1106.5 m/s
319.99 K, 45135 kPa, Liquid	1140.9 m/s
320 K, 1103.3 kPa, Liquid	702.16 m/s
320 K, 1103.7 kPa, Liquid	702.18 m/s
320 K, 1105.9 kPa, Liquid	702.16 m/s
320 K, 2106.5 kPa, Liquid	719.58 m/s
320 K, 3107.1 kPa, Liquid	736.11 m/s
320 K, 5106.2 kPa, Liquid	766.91 m/s
320 K, 5106.5 kPa, Liquid	766.92 m/s
320 K, 5108.3 kPa, Liquid	766.9 m/s
320 K, 6108.3 kPa, Liquid	781.34 m/s
320 K, 7109 kPa, Liquid	795.23 m/s
320 K, 8109.8 kPa, Liquid	808.64 m/s
320 K, 9110.4 kPa, Liquid	821.6 m/s
320 K, 10109 kPa, Liquid	834.15 m/s
320 K, 10110 kPa, Liquid	834.16 m/s and 834.15 m/s
320 K, 15114 kPa, Liquid	891.73 m/s
320 K, 17616 kPa, Liquid	917.89 m/s
320 K, 20118 kPa, Liquid	942.65 m/s
320 K, 25121 kPa, Liquid	988.67 m/s
320 K, 30123 kPa, Liquid	1030.8 m/s
320 K, 30124 kPa, Liquid	1030.9 m/s
320 K, 35128 kPa, Liquid	1070 m/s
320 K, 50136 kPa, Liquid	1173.5 m/s
320 K, 50139 kPa, Liquid	1173.5 m/s
320 K, 60146 kPa, Liquid	1234 m/s
320 K, 70153 kPa, Liquid	1289.5 m/s
320 K, 80160 kPa, Liquid	1340.8 m/s
320 K, 90167 kPa, Liquid	1388.9 m/s
320 K, 100174 kPa, Liquid	1434 m/s
320.01 K, 12612 kPa, Liquid	863.87 m/s
340 K, 2104 kPa, Liquid	604.55 m/s
340 K, 2104.2 kPa, Liquid	604.63 m/s
340 K, 3104.8 kPa, Liquid	625.77 m/s
340 K, 4105.5 kPa, Liquid	645.52 m/s
340 K, 5106 kPa, Liquid	664.1 m/s
340 K, 5106.2 kPa, Liquid	664.04 m/s
340 K, 6106.7 kPa, Liquid	681.52 m/s
340 K, 7107.5 kPa, Liquid	698.12 m/s
340 K, 8108.3 kPa, Liquid	713.94 m/s
340 K, 9109.1 kPa, Liquid	729.07 m/s
340 K, 10109 kPa, Liquid	743.63 m/s
340 K, 10110 kPa, Liquid	743.59 m/s
340 K, 12612 kPa, Liquid	777.6 m/s
340 K, 15113 kPa, Liquid	808.91 m/s
340 K, 17616 kPa, Liquid	838.02 m/s
340 K, 20118 kPa, Liquid	865.3 m/s
340 K, 25121 kPa, Liquid	915.43 m/s
340 K, 30123 kPa, Liquid	960.88 m/s
340 K, 30125 kPa, Liquid	960.87 m/s
340 K, 35128 kPa, Liquid	1002.6 m/s
340 K, 40130 kPa, Liquid	1041.4 m/s
340 K, 40132 kPa, Liquid	1041.4 m/s
340 K, 45135 kPa, Liquid	1077.7 m/s
340 K, 50140 kPa, Liquid	1112 m/s
340 K, 60147 kPa, Liquid	1175.2 m/s
340 K, 70154 kPa, Liquid	1232.9 m/s
340 K, 80159 kPa, Liquid	1286 m/s
340 K, 90166 kPa, Liquid	1335.6 m/s
340 K, 100173 kPa, Liquid	1382.1 m/s
360 K, 2104.4 kPa, Liquid	480.04 m/s
360 K, 3105.2 kPa, Liquid	509.76 m/s
360 K, 4105.9 kPa, Liquid	536.09 m/s
360 K, 5104.5 kPa, Liquid	559.92 m/s
360 K, 5104.9 kPa, Liquid	559.91 m/s
360 K, 6107.2 kPa, Liquid	581.76 m/s
360 K, 7108 kPa, Liquid	602.06 m/s
360 K, 8109.7 kPa, Liquid	621.09 m/s
360 K, 9110.4 kPa, Liquid	639 m/s
360 K, 10108 kPa, Liquid	655.98 m/s
360 K, 10111 kPa, Liquid	655.99 m/s
360 K, 12613 kPa, Liquid	695.08 m/s
360 K, 15114 kPa, Liquid	730.38 m/s
360 K, 17616 kPa, Liquid	762.73 m/s
360 K, 20118 kPa, Liquid	792.71 m/s
360 K, 25121 kPa, Liquid	847.15 m/s
360 K, 30125 kPa, Liquid	895.9 m/s
360 K, 35128 kPa, Liquid	940.3 m/s
360 K, 40132 kPa, Liquid	981.26 m/s
360 K, 45135 kPa, Liquid	1019.4 m/s
360 K, 50136 kPa, Liquid	1055.2 m/s
360 K, 50137 kPa, Liquid	1055.2 m/s
360 K, 50138 kPa, Liquid	1055.2 m/s
360 K, 60146 kPa, Liquid	1121 m/s
360 K, 70152 kPa, Liquid	1180.7 m/s
360 K, 80159 kPa, Liquid	1235.6 m/s
360 K, 90166 kPa, Liquid	1286.5 m/s
360 K, 100173 kPa, Liquid	1334.2 m/s
380 K, 3104.5 kPa, Liquid	378.47 m/s
380 K, 3604.1 kPa, Liquid	399.56 m/s
380 K, 4105.2 kPa, Liquid	418.49 m/s
380 K, 5105.8 kPa, Liquid	451.63 m/s
380 K, 6106.5 kPa, Liquid	480.42 m/s
380 K, 7107.2 kPa, Liquid	506.13 m/s
380 K, 8107.8 kPa, Liquid	529.51 m/s
380 K, 8109.6 kPa, Liquid	529.52 m/s
380 K, 9107.5 kPa, Liquid	551.1 m/s
380 K, 9107.9 kPa, Liquid	551.06 m/s
380 K, 10108 kPa, Liquid	571.15 m/s
380 K, 10111 kPa, Liquid	571.16 m/s
380 K, 12610 kPa, Liquid	616.32 m/s
380 K, 15112 kPa, Liquid	656.14 m/s
380 K, 15114 kPa, Liquid	656.15 m/s
380 K, 17614 kPa, Liquid	692.04 m/s
380 K, 20115 kPa, Liquid	724.92 m/s
380 K, 20116 kPa, Liquid	724.9 m/s
380 K, 25120 kPa, Liquid	783.75 m/s
380 K, 25121 kPa, Liquid	783.75 m/s
380 K, 30123 kPa, Liquid	835.78 m/s
380 K, 35127 kPa, Liquid	882.76 m/s
380 K, 40130 kPa, Liquid	925.81 m/s
380 K, 45134 kPa, Liquid	965.68 m/s
380 K, 50137 kPa, Liquid	1003 m/s
380 K, 60144 kPa, Liquid	1071.2 m/s
380 K, 70152 kPa, Liquid	1132.8 m/s
380 K, 80160 kPa, Liquid	1189.2 m/s
380 K, 90167 kPa, Liquid	1241.4 m/s
380 K, 100174 kPa, Liquid	1290.2 m/s
380.01 K, 20115 kPa, Liquid	724.92 m/s
380.01 K, 50136 kPa, Liquid	1002.9 m/s
400 K, 4606.1 kPa, Liquid	309.14 m/s
400 K, 5106.4 kPa, Liquid	334.25 m/s
400 K, 6107.2 kPa, Liquid	375.6 m/s
400 K, 7108.1 kPa, Liquid	409.76 m/s
400 K, 8108.8 kPa, Liquid	439.33 m/s
400 K, 8109.3 kPa, Liquid	439.33 m/s
400 K, 9109.5 kPa, Liquid	465.69 m/s
400 K, 10110 kPa, Liquid	489.63 m/s
400 K, 10111 kPa, Liquid	489.63 m/s
400 K, 12612 kPa, Liquid	541.93 m/s
400 K, 15114 kPa, Liquid	586.71 m/s and 586.72 m/s
400 K, 17616 kPa, Liquid	626.34 m/s
400 K, 20117 kPa, Liquid	662.12 m/s
400 K, 25122 kPa, Liquid	725.35 m/s
400 K, 30126 kPa, Liquid	780.54 m/s
400 K, 35129 kPa, Liquid	829.95 m/s
400 K, 40132 kPa, Liquid	874.94 m/s
400 K, 45136 kPa, Liquid	916.42 m/s
400 K, 50139 kPa, Liquid	955.05 m/s
400 K, 60146 kPa, Liquid	1025.5 m/s
400 K, 70153 kPa, Liquid	1088.7 m/s
400 K, 80160 kPa, Liquid	1146.5 m/s
400 K, 90167 kPa, Liquid	1199.9 m/s
400 K, 100174 kPa, Liquid	1249.7 m/s
420 K, 6107.4 kPa, Gas	266.66 m/s
420 K, 7108.4 kPa, Gas	314.01 m/s
420 K, 8109.2 kPa, Gas	351.95 m/s
420 K, 9110 kPa, Gas	384.27 m/s
420 K, 10111 kPa, Gas	412.72 m/s
420 K, 12613 kPa, Gas	472.84 m/s
420 K, 15115 kPa, Gas	522.73 m/s
420 K, 17617 kPa, Gas	566.03 m/s
420 K, 20119 kPa, Gas	604.64 m/s
420 K, 25122 kPa, Gas	671.99 m/s
420 K, 30126 kPa, Gas	730.1 m/s
420 K, 35129 kPa, Gas	781.73 m/s
420 K, 40133 kPa, Gas	828.47 m/s
420 K, 45136 kPa, Gas	871.4 m/s
420 K, 50140 kPa, Gas	911.24 m/s
420 K, 60146 kPa, Gas	983.6 m/s
420 K, 70153 kPa, Gas	1048.4 m/s
420 K, 80160 kPa, Gas	1107.4 m/s
420 K, 90167 kPa, Gas	1161.8 m/s
420 K, 100174 kPa, Gas	1212.4 m/s
